Entries after “also recorded” stand apart in the source; their conditions may differ. Like-named read-outs stand apart in the source and are kept apart here.
Assays:
[1] = 10 mg/kg dose, Gordon et al., 2001; cited from earlier work
[2] = BEV serum pharmacokinetics (Phase 1 MRZ + BEV); assay type: in vivo, human; conditions: for BEV pharmacokinetic parameters: effect of co-administration: with MRZ
Procedure: The drugs were infused on 28-Day Cycles. Tumor response is assessed every other cycle by RANO criteria.

recurrent glioma = conditions: cited from earlier work; for 6 mo OS / 6 mo PFS / 9 mo OS / 9 mo PFS: BEV monotherapy
[3] = BEV 10 mg/kg IV, serum, C1D15, marizomib 0.7 mg/m^2 cohort
[4] = BEV 10 mg/kg IV, serum, C1D15, marizomib 0.8 mg/m^2 cohort
[5] = BEV 10 mg/kg IV, serum, C1D15, marizomib […]^2 cohort
[6] = BEV PK, C1D15, MRZ 0.7 mg/m^2 cohort (17 May 2016)
[7] = BEV PK, C1D15, MRZ 0.7 mg/m^2 cohort (Table 43)
[8] = BEV PK, C1D15, MRZ 0.8 mg/m^2 cohort (17 May 2016)
[9] = BEV PK, C1D15, MRZ 0.8 mg/m^2 cohort (Table 43)
[10] = across all dose cohorts, BEV 10 mg/kg with MRZ
[11] = BELOB Trial, BEV monotherapy (Taal et al., 2014)
[12] = BELOB trial BEV monotherapy arm (Taal et al., 2014)
[13] = Heiland (Freiburg, Germany), All Pts
[14] = Heiland (Freiburg, Germany), Methylated
[15] = Heiland (Freiburg, Germany), Unmethylated MGMT promoter
[16] = Taal (BELOB), Unmethylated MGMT promoter
[17] = Wick (EORTC 26101 P2), Methylated
[18] = Wick (EORTC 26101 P2), Unmethylated MGMT promoter

bevacizumab [reference compound]
Cmax of bevacizumab at Day 0 [1]: 284 µg/mL
Cmax D1 ([2]; BEV 10 mg/kg IV, serum, C1D1, marizomib 0.7 mg/m^2 cohort): 193 ± 8 (2) μg/mL
Cmax D1 ([2]; BEV 10 mg/kg IV, serum, C1D1, marizomib 0.8 mg/m^2 cohort): 267 ± 13.3 (3) μg/mL
Cmax D1 ([2]; BEV 10 mg/kg IV, serum, C1D1, marizomib […]^2 cohort): 275 ± 37.5 (6) μg/mL
Cmax D15 [2, 3]: 402 ± 123 (3) μg/mL
Cmin D15 [2, 3]: 81.1 ± 17.4 (2) μg/mL
Cmax D15 [2, 4]: 380 ± 56.5 (2) μg/mL
Cmin D15 [2, 4]: 85.0 ± 9.87 (3) μg/mL
Cmax D15 [2, 5]: 351 ± 46.6 (5) μg/mL
Cmin D15 [2, 5]: 89.7 ± 6.2 (6) μg/mL
Cmax D1 ([2]; BEV PK, C1D1, MRZ 0.7 mg/m^2 cohort (17 May 2016)): 282 ± 89 (3) μg/mL
Cmax D1 ([2]; BEV PK, C1D1, MRZ 0.7 mg/m^2 cohort (Table 43)): 193 ± 8 (2) μg/mL
Cmax D1 ([2]; BEV PK, C1D1, MRZ 0.8 mg/m^2 cohort (17 May 2016)): 267 ± 133 (3) μg/mL
Cmax D1 ([2]; BEV PK, C1D1, MRZ 0.8 mg/m^2 cohort (Table 43)): 267 ± 13.3 (3) μg/mL
Cmax D15 [2, 6]: 402 ± 123 (3) μg/mL
Cmin D15 [2, 6]: 114 ± 34 (3) μg/mL
Cmax D15 [2, 7]: 402 ± 123 (3) μg/mL
Cmin D15 [2, 7]: 81.1 ± 17.4 (2) μg/mL
Cmax D15 [2, 8]: 404 ± 40 (3) μg/mL
Cmin D15 [2, 8]: 85 ± 9.9 (3) μg/mL
Cmax D15 [2, 9]: 380 ± 56.5 (2) μg/mL
Cmin D15 [2, 9]: 85.0 ± 9.87 (3) μg/mL
Mean Day 15 Cmax of BEV ([2]; Study 108, BEV 10 mg/kg with MRZ): 379 µg/mL
mean Cmax of bevacizumab on Day 1 [2, 10]: 275 µg/mL
mean Cmax of bevacizumab on Day 1 (second value so printed) [2, 10]: 379 µg/mL
mean Cmin of bevacizumab on Day 15 [2, 10]: 95 µg/mL
BEV pharmacokinetic parameters: effect of co-administration [2]: not affected by co-administration
BEV pharmacokinetic parameters: effect of co-administration ([2]; listed as BEV): no effect of MRZ on BEV pharmacokinetics; also recorded: not affected by co-administration of MRZ
6 Months PFS, all patients (recurrent glioma; [11]): 16%
6 Months PFS, uMGMT Promoter (recurrent glioma; [11]): 8%
6 mo PFS, All (recurrent glioma; [12]): 16%
6 mo PFS, uMGMT Promoter (recurrent glioma; [12]): 8%
6 mo OS (recurrent glioma; Field (CABARET), All Pts): 61%
6 mo PFS (recurrent glioma; Field (CABARET), All Pts): 18%
9 mo OS (recurrent glioma; Field (CABARET), All Pts): 39%
9 mo PFS (recurrent glioma; Field (CABARET), All Pts): 6%
6 mo Overall Survival, All Pts (recurrent glioma; Field (CABARET)): 61%
6 mo Progression Free Survival, All Pts (recurrent glioma; Field (CABARET)): 18%
9 mo Overall Survival, All Pts (recurrent glioma; Field (CABARET)): 39%
9 mo Progression Free Survival, All Pts (recurrent glioma; Field (CABARET)): 6%
12 Mo. Overall Survival, All Pts (recurrent glioma; Field (CABARET)): 24%
6 mo OS (recurrent glioma; [13]): 18%
9 mo OS (recurrent glioma; [13]): 30%
9 mo PFS (recurrent glioma; [13]): 0%
6 mo OS (recurrent glioma; [14]): 58%
6 mo PFS (recurrent glioma; [14]): 38%
9 mo OS (recurrent glioma; [14]): 40%
9 mo PFS (recurrent glioma; [14]): 22%
6 mo OS (recurrent glioma; [15]): 25%
6 mo PFS (recurrent glioma; [15]): 10%
9 mo PFS (recurrent glioma; [15]): 0%
6 mo Overall Survival, All Pts (recurrent glioma; Heiland (Freiburg, Germany)): 18%
6 mo Overall Survival, Methylated (recurrent glioma; Heiland (Freiburg, Germany)): 58%
6 mo Overall Survival, Unmethylated (recurrent glioma; Heiland (Freiburg, Germany)): 25%
6 mo Progression Free Survival, Methylated (recurrent glioma; Heiland (Freiburg, Germany)): 38%
6 mo Progression Free Survival, Unmethylated (recurrent glioma; Heiland (Freiburg, Germany)): 10%
9 mo Overall Survival, All Pts (recurrent glioma; Heiland (Freiburg, Germany)): 30%
9 mo Overall Survival, Methylated (recurrent glioma; Heiland (Freiburg, Germany)): 40%
9 mo Progression Free Survival, All Pts (recurrent glioma; Heiland (Freiburg, Germany)): 0%
9 mo Progression Free Survival, Methylated (recurrent glioma; Heiland (Freiburg, Germany)): 22%
9 mo Progression Free Survival, Unmethylated (recurrent glioma; Heiland (Freiburg, Germany)): 0%
12 Mo. Overall Survival, All Pts (recurrent glioma; Heiland (Freiburg, Germany)): 10%
12 Mo. Overall Survival, Methylated (recurrent glioma; Heiland (Freiburg, Germany)): 24%
12 Mo. Progression Free Survival, All Pts (recurrent glioma; Heiland (Freiburg, Germany)): 0%
12 Mo. Progression Free Survival, Methylated (recurrent glioma; Heiland (Freiburg, Germany)): 10%
12 Mo. Progression Free Survival, Unmethylated (recurrent glioma; Heiland (Freiburg, Germany)): 0%
6 mo OS (recurrent glioma; Taal (BELOB), All Pts): 62%
6 mo PFS (recurrent glioma; Taal (BELOB), All Pts): 16%
9 mo OS (recurrent glioma; Taal (BELOB), All Pts): 45%
9 mo PFS (recurrent glioma; Taal (BELOB), All Pts): 8%
6 mo OS (recurrent glioma; Taal (BELOB), Methylated): 83%
6 mo PFS (recurrent glioma; Taal (BELOB), Methylated): 33%
9 mo OS (recurrent glioma; Taal (BELOB), Methylated): 67%
9 mo PFS (recurrent glioma; Taal (BELOB), Methylated): 22%
6 mo OS (recurrent glioma; [16]): 50%
6 mo PFS (recurrent glioma; [16]): 8%
9 mo PFS (recurrent glioma; [16]): 0%
6 mo Overall Survival, All Pts (recurrent glioma; Taal (BELOB)): 62%
6 mo Overall Survival, Methylated (recurrent glioma; Taal (BELOB)): 83%
6 mo Overall Survival, Unmethylated (recurrent glioma; Taal (BELOB)): 50%
6 mo Progression Free Survival, All Pts (recurrent glioma; Taal (BELOB)): 16%
6 mo Progression Free Survival, Methylated (recurrent glioma; Taal (BELOB)): 33%
6 mo Progression Free Survival, Unmethylated (recurrent glioma; Taal (BELOB)): 8%
9 mo Overall Survival, All Pts (recurrent glioma; Taal (BELOB)): 45%
9 mo Overall Survival, Methylated (recurrent glioma; Taal (BELOB)): 67%
9 mo Progression Free Survival, Methylated (recurrent glioma; Taal (BELOB)): 22%
9 mo Progression Free Survival, Unmethylated (recurrent glioma; Taal (BELOB)): 0%
12 Mo. Overall Survival, All Pts (recurrent glioma; Taal (BELOB)): 26%
12 Mo. Overall Survival, Methylated (recurrent glioma; Taal (BELOB)): 56%
12 Mo. Overall Survival, Unmethylated (recurrent glioma; Taal (BELOB)): 8%
12 Mo. Progression Free Survival, Unmethylated (recurrent glioma; Taal (BELOB)): 0%
6 mo PFS (recurrent glioma; Wick (EORTC 26101 P2), All Pts): 14%
9 mo PFS (recurrent glioma; Wick (EORTC 26101 P2), All Pts): 9%
6 mo PFS (recurrent glioma; [17]): 25%
9 mo PFS (recurrent glioma; [17]): 9%
6 mo PFS (recurrent glioma; [18]): 10%
9 mo PFS (recurrent glioma; [18]): 10%
6 mo Progression Free Survival, All Pts (recurrent glioma; Wick (EORTC 26101 P2)): 14%
6 mo Progression Free Survival, Methylated (recurrent glioma; Wick (EORTC 26101 P2)): 25%
6 mo Progression Free Survival, Unmethylated (recurrent glioma; Wick (EORTC 26101 P2)): 10%
9 mo Progression Free Survival, All Pts (recurrent glioma; Wick (EORTC 26101 P2)): 9%
9 mo Progression Free Survival, Methylated (recurrent glioma; Wick (EORTC 26101 P2)): 9%
9 mo Progression Free Survival, Unmethylated (recurrent glioma; Wick (EORTC 26101 P2)): 10%
12 Mo. Progression Free Survival, All Pts (recurrent glioma; Wick (EORTC 26101 P2)): 8%
12 Mo. Progression Free Survival, Methylated (recurrent glioma; Wick (EORTC 26101 P2)): 9%
12 Mo. Progression Free Survival, Unmethylated (recurrent glioma; Wick (EORTC 26101 P2)): 10%
6-month progression-free survival (PFS) rate (recurrent glioma; recurrent G4 MG): ~43%
median overall survival (OS) (recurrent glioma; recurrent G4 MG): ~9 months
